This note sets out measurements from patent US20180362531A1, “NOVEL KYNUREININE PATHWAY INHIBITORS” (STANDARD LLC, priority 2017, published 2018).

What all share (format): biochemical
The target in one assay is T1, Human IDO1 His-Tag (Homo sapiens, UniProt P14902).
T1 construct: purchased BPS Bioscience
Kind of assay: IDO1 Inhibitor Screening Assay (BPS Bioscience kit, absorption at 321 nm). Particulars: room temperature, 3 hours; N.D. = Not Detected. The method, then:
IDO1 (indoleamine 2,3-dioxygenase-1) catalyzes the oxidative cleavage of the pyrrole ring of tryptophan to yield N′-formylkynurenine. The amount of N′-formylkynurenine product is able to be detected by the absorption at the wavelength of 321 nm. IDO1 inhibitor Screening Assay kit (BPS Bioscience) was used to test the compound. The assay was performed as described in the assay protocol.
IDO1 reaction solution (90 μl) was aliquoted into each well of a 96-well plate. 5 μl of the compound solution in 10% DMSO was added to each well. 5 μl 10% DMSO was added to the positive control and blank wells. Human IDO1 His-Tag was diluted to 40 ng/μl in 1×IDO1 Assay buffer. The reaction was initiated by adding 5 μl of diluted IDO1. In the blank well, only 1×IDO1 assay buffer was added instead. After incubating at room temperature for 3 hours, the absorption was measured at the wavelength of 321 nm using a microplate reader.
The relative activity, I, was the ratio of former to later, i.e. X/Y, expressed in percentile. The IC50 was the concentration of the compounds when X/Y equals 50 and calculated based on the dose-response curve.

For the next assay, the target named is T2, Human IDO2 His-Tag (Homo sapiens, UniProt Q6ZQW0).
T2 construct: purchased BPS Bioscience
T2 sequence (Q6ZQW0 1-407): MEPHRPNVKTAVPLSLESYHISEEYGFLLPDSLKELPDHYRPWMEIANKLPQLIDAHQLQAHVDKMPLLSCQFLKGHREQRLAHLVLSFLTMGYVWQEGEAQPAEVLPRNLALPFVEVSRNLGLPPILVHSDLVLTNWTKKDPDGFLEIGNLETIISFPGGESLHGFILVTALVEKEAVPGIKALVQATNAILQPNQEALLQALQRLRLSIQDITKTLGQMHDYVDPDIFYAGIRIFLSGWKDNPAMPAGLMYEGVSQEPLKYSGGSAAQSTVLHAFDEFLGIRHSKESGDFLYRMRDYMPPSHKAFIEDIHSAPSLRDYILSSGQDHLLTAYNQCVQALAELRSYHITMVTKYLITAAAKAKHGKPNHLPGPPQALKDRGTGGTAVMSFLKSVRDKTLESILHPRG
Kind of assay: IDO2 Inhibitor Screening Assay (BPS Bioscience kit, absorption at 321 nm). Particulars: room temperature, 3 hours. The method, then:
To evaluate the selectivity of IDO inhibition for Compounds Nos. D42 and D46, an assay to measure activity against IDO2 was performed. The IDO2 Inhibitor Screening Assay kit (BPS Bioscience) was used for IDO2 test. The protocol is similar to IDO1 assay. IDO2 reaction solution (90 μl) was aliquoted into each well of a 96-well plate. 5 μl of compound solution in 10% DMSO was added to each well. 5 μl 10% DMSO was added to the positive control and blank wells. Human IDO2 His-Tag was diluted in 1×IDO2 Assay buffer at 400 ng/μl. The reaction was initiated by adding 5 μl diluted IDO2. 1×IDO2 assay buffer to the blank well. After incubating at room temperature for 3 hours, the absorption was measured at the wavelength of 321 nm. The IC50 was calculated as described for IDO2.
The test compound inhibition was measured as X-fold. The control solution (DMSO) was measured as Y-fold. The relative activity, I, was the ratio of former to later, i.e. X/Y, expressed in percentile. The IC50 was the concentration of the compounds when X/Y equals 50 and calculated based on the dose-response curve.

In the next assay the target is T3, Human TDO His-Tag (Homo sapiens, UniProt P48775).
T3 construct: purchased BPS Bioscience
T3 sequence (P48775 whole entry): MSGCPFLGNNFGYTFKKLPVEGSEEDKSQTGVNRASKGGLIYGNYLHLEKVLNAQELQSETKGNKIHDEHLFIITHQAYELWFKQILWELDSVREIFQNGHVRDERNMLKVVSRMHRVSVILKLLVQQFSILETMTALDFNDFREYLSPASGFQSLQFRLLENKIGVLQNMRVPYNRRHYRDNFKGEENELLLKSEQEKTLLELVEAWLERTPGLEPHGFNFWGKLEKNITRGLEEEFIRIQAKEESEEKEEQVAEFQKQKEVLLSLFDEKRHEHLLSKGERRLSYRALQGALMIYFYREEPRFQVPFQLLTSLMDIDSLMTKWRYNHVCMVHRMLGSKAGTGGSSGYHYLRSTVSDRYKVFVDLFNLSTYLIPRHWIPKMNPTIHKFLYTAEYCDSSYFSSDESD
Kind of assay: TDO Inhibition Screening Assay (BPS Bioscience kit, absorption at 321 nm). Particulars: room temperature, 1.5 hours. The method, then:
The TDO inhibitor Screening Assay kit (BPS Bioscience) was used to test for TDO inhibition by Compound Nos. D42 and D46. The protocol is similar to IDO1 assay. TDO reaction solution (90 μl) was aliquoted into each well of a 96-well plate. 5 μl of compound solution in 10% DMSO was added to each well. 5 μl 10% DMSO was added to the positive control and blank wells. Human TDO His-Tag was diluted in 1×TDO Assay buffer at 50 ng/μl. The reaction was initiated by adding 5 μl diluted TDO. 1×TDO assay buffer was added to the blank well. After incubating at room temperature for 1.5 hours, the absorption was measured at the wavelength of 321 nm. The IC50 was calculated as described for TDO inhibition. The relative activity and IC50 was calculated as described above in Examples 3 and 4.

T1 sequence (P14902 whole entry): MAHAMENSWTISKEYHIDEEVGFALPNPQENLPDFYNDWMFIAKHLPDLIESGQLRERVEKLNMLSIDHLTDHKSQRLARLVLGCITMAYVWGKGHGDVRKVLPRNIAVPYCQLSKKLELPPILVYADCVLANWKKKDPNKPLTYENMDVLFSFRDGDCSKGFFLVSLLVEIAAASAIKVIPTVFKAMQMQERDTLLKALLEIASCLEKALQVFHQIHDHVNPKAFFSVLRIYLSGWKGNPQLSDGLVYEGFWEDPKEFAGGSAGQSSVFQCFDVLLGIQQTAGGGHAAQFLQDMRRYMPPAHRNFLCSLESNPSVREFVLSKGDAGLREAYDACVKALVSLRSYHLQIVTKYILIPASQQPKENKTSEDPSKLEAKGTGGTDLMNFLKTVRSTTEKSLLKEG

For `N#Cc1ccc(NC(=O)NCCC2c3ccccc3-c3cncn32)cc1` (stereo not drawn) [D46, 1-(2-(5H-imidazo[5,1-a]isoindol-5-yl)ethyl)-3-(4-cyanophenyl)urea], the results for the IC50 against Human IDO1 His-Tag and against Human TDO His-Tag were 325 nM and 0.064 µM, respectively. The IDO2 inhibition entry at Human IDO2 His-Tag is given as “No IDO2 inhibition was detected”.
For `N#Cc1ccc(NC(=O)NCC2c3ccccc3-c3cncn32)cc1` (stereo not drawn) [D42, 1-((5H-imidazo[5,1-a]isoindol-5-yl)methyl)-3-(4-cyanophenyl)urea], the concentration for half-maximal inhibition (IC50) at Human IDO1 His-Tag turned out to be 61 nM; against Human TDO His-Tag, 0.064 µM. For the same compound, the IDO2 inhibition entry on Human IDO2 His-Tag was “No IDO2 inhibition was detected”.

The term IC50 denotes the midpoint of a concentration-inhibition curve.
